Reference: US20030105010A1, “Crystals and structures of ArnB aminotransferases” (priority 2001, published 2003)

How the values were obtained:
[1] = biological target: T1, Salmonella typhimurium ArnB (Salmonella typhimurium, UniProt Q8ZNF3); test: ArnB aminotransfer half-reaction assay (absorbance of PMP/PLP cofactor forms at 340 nm / 430 nm); type: biochemical; conditions: for conversion of ArnB from the E-PLP form back to the E•PMP form by amino donor: excess amino acid, decrease at 430 nm and increase at 340 nm; for observed rate constant of aminotransfer from L-methionine to E-PLP ArnB: enzyme concentration 23 μM, L-methionine concentration 20 mM
T1 construct: made in house; host or cells: E. coli BL21 (DE3), vector pSB3 (modified pET26b)
T1 sequence (Q8ZNF3 whole entry): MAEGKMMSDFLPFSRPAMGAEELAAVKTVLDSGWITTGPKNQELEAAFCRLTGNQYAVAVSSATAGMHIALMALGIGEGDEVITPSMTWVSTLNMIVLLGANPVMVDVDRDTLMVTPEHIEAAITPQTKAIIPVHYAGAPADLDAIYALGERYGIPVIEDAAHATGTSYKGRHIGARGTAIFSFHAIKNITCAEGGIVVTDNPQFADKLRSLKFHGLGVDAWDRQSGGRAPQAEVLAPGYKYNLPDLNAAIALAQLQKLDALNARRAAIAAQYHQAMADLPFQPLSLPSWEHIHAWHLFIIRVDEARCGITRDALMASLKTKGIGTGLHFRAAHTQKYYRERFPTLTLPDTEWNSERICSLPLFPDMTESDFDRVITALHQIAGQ
Procedure: Aminotransfer half-reactions were measured at an enzyme concentration of 23 μM and substrates were added to a final concentration of 250 μM, unless otherwise indicated. Reaction progress was followed by moniotoring the absorbance maxima of the PMP or PLP cofactor forms at 340 nm or 430 nm, respectively. Resulting time courses were fit to eq. 1, describing a single-exponential decay,
Yobs=((Y0−Y∞)e^−kt)+Y∞ (Eq. 1),
where Yobs=observed signal, Y0=signal at time zero, Y∞=signal at infinite time, k is the apparent first-order rate constant, and t is time. Nonlinear least-squares fits were performed with Kaleidagraph v3.51 (Synergy Software, Reading, Pa.).

[2] = biological target: T1, Salmonella typhimurium ArnB; test: L-cycloserine inhibition of ArnB followed by cofactor absorbance spectrum; type: biochemical
ArnB from E. coli K12 = ArnB from E. coli K12 (Escherichia coli, UniProt P77690); conditions: compared with L-glutamate; cited from earlier work
Chain of ArnB from E. coli K12 (P77690 whole entry): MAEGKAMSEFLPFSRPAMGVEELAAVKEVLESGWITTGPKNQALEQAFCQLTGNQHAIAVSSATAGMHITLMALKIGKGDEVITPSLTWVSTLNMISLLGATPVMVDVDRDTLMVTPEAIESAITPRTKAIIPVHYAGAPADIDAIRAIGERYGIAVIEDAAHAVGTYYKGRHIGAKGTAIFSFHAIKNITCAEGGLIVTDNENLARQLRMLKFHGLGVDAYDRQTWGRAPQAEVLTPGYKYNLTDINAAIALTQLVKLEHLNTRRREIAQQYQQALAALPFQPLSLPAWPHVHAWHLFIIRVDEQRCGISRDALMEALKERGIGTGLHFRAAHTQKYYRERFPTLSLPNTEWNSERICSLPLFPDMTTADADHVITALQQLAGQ

CSCC[C@@H](N)C(=O)O (single isomer, unassigned) [D-isomer of methionine]
conversion of ArnB from the E-PLP form back to the E•PMP form by amino donor [1]: no such effect

N[C@@H](CC(=O)O)C(=O)O (single isomer, unassigned) [L-isomer of aspartic acid]
conversion of ArnB from the E-PLP form back to the E•PMP form by amino donor [1]: slower rate than L-methionine

N[C@H]1CONC1=O [L-cycloserine]
reaction with ArnB in the E-PMP form ([2]; E-PMP enzyme form): did not react | inactivation of E-PLP ArnB ([2]; excess L-cycloserine, loss of 430 nm internal aldimine peak, appearance of peak centered at 334 nm): rapidly inactivated

N[C@@H](CCC(=O)O)C(=O)O [L-glutamate]
conversion of ArnB from the E-PLP form back to the E•PMP form by amino donor [1]: fastest L-amino acid tested

NC(=O)CC[C@H](N)C(=O)O [L-glutamine]
use as amino donor substrate (ArnB from E. coli K12): less efficiently than with L-glutamate

CSCC[C@H](N)C(=O)O [L-methionine]
conversion of ArnB from the E-PLP form back to the E•PMP form by amino donor [1]: readily converted | observed rate constant of aminotransfer from L-methionine to E-PLP ArnB ([1]; measured at 340 nm): 0.065 ± 0.014 min⁻¹ | observed rate constant of aminotransfer from L-methionine to E-PLP ArnB ([1]; measured at 430 nm): 0.051 ± 0.013 min⁻¹

O=C(O)CCCC(=O)C(=O)O [α-Ketoadipate]
reduction in aminotransfer rate from that of α-ketoglutarate ([1]; E•PMP to E-PLP conversion, absorbance increase at 430 nm, α-ketoacid as amino acceptor substrate): 3 fold
